Here are results for 26 compounds from ChEMBL document CHEMBL4138086, “Design and synthesis of bis(indolyl)ketohydrazide-hydrazones: Identification of potent and selective novel tubulin inhibitors” (Eur J Med Chem, 2017).

Test [1] concerns HCT-116. Put plainly: Cytotoxicity against human HCT116 cells assessed as cell survival at 10 uM after 48 hrs by MTT assay relative to control. It is filed as functional. Conditions: HCT-116, 48 h, read-out: Survival.
For test [2], the system named is Jurkat. Description: Cytotoxicity against human Jurkat cells assessed as cell survival at 10 uM after 48 hrs by MTT assay relative to control. In kind it is functional. Conditions: read-out: Survival.
In test [3] the test system is BT-474. Put plainly: Cytotoxicity against human BT474 cells assessed as cell survival at 10 uM after 48 hrs by MTT assay relative to control. In kind it is functional. Particulars: BT-474, 48 h, read-out: Survival. (In general: Formazan colour is commonly taken as a measure of viable cells.)
The test system of test [4] is MDA-MB-231. Put plainly: Cytotoxicity against human MDA-MB-231 cells assessed as cell survival at 10 uM after 48 hrs by MTT assay relative to control. In kind it is functional. Conditions: MDA-MB-231, 48 h, read-out: Survival.
The test system of test [5] is MCF7. Put plainly: Cytotoxicity against human MCF7 cells assessed as cell survival at 10 uM after 48 hrs by MTT assay relative to control. In kind it is functional. Particulars: MCF7, 48 h, read-out: Survival.
The test system of test [6] is Jurkat. Put plainly: Cytotoxicity against human Jurkat cells assessed as reduction in cell survival after 48 hrs by MTT assay. It is filed as functional, cell-based.
The subject of test [7] is MCF7. Put plainly: Cytotoxicity against human MCF7 cells assessed as reduction in cell survival after 48 hrs by MTT assay. It is filed as functional, cell-based. Particulars: MCF7, 48 h.
Test [8] concerns HCT-116. Put plainly: Cytotoxicity against human HCT116 cells assessed as reduction in cell survival after 48 hrs by MTT assay. It is filed as functional, cell-based. Particulars: HCT-116, 48 h.
In test [9] the test system is MDA-MB-231. Description: Cytotoxicity against human MDA-MB-231 cells assessed as reduction in cell survival after 48 hrs by MTT assay. Particulars: MDA-MB-231, 48 h. It is filed as functional, cell-based.
Test [10] concerns Jurkat. Put plainly: Induction of apoptosis in human Jurkat cells increase in caspase 3/7 activity at 1 uM measured up to 180 mins by fluorescence assay relative to control. In kind it is functional.
The next test relates to DU-145. Put plainly: Cytotoxicity against human DU145 cells assessed as reduction in cell viability. In kind it is functional, cell-based.
Test [11] relates to BT-474. Description: Cytotoxicity against human BT474 cells assessed as reduction in cell survival after 48 hrs by MTT assay. It is filed as functional, cell-based. Conditions: BT-474, 48 h.
The subject of the next test is P388. Put plainly: Cytotoxicity against mouse P388 cells assessed as reduction in cell viability. It is filed as functional, cell-based.

In general, IC50 refers to the concentration that gives 50% inhibition.

Take `O=C(N/N=C/c1c[nH]c2cc(Br)ccc12)C(=O)c1c[nH]c2ccccc12`: the viability at 10 µM is 94.5% with HCT-116 [1]; 75.4% in the test on Jurkat [2]; 86.8% with BT-474 [3]; 95.1% with MDA-MB-231 [4]; 92.7% in the test on MCF7 [5].

As for `O=C(N/N=C/c1cn(Cc2ccc(Cl)cc2)c2ccc(Br)cc12)C(=O)c1c[nH]c2ccccc12`, the viability at 10 µM in the test on HCT-116 [1] was 72.6%; in the test on Jurkat [2] it was 93.2%; in the test with BT-474 [3], 94.7%; in the test with MDA-MB-231 [4], 88.8%; in the test with MCF7 [5], 107%.

On to `COc1ccc(Cn2cc(/C=N/NC(=O)C(=O)c3c[nH]c4ccc(Br)cc34)c3cc(OC)ccc32)cc1`, for which the viability at 10 µM in the test on HCT-116 [1] worked out at 65.7%; with Jurkat [2] it was 81.9%; with BT-474 [3] it was 91.1%; with MDA-MB-231 [4] it was 102%; in the test on MCF7 [5], 112%.

In the case of `COc1ccc2c(/C=N/NC(=O)C(=O)c3c[nH]c4ccccc34)c[nH]c2c1`, the viability at 10 µM with HCT-116 [1] came out at 38.8%; in the test with Jurkat [2], 52.1%; in the test on BT-474 [3], 95.6%; with MDA-MB-231 [4] it was 103%; in the test on MCF7 [5] it was 34.6%. The IC50 in the test on Jurkat [6] was found to be 10000 nM; with MCF7 [7] it was 6100 nM; with HCT-116 [8], 2500 nM.

As for `O=C(N/N=C/c1ccncc1)C(=O)c1cn(Cc2ccc(Cl)cc2)c2ccccc12`, the viability at 10 µM with HCT-116 [1] was determined as 69.1%; with Jurkat [2] it was 66.7%; in the test with BT-474 [3] it was 78.7%; with MDA-MB-231 [4], 71.2%; in the test with MCF7 [5], 82.2%.

For the compound `O=C(N/N=C/c1c[nH]c2ccccc12)C(=O)c1c[nH]c2ccccc12`, the viability at 10 µM was 88.4% in the test on HCT-116 [1]; 33.6% with Jurkat [2]; 83% with BT-474 [3]; 98.6% in the test with MDA-MB-231 [4]; 99.2% in the test with MCF7 [5].

As to `O=C(N/N=C/c1c[nH]c2ccc(Br)cc12)C(=O)c1c[nH]c2ccccc12`, the viability at 10 µM is 26.3% in the test with HCT-116 [1]; 25.5% in the test with Jurkat [2]; 82.4% in the test on BT-474 [3]; 34% in the test on MDA-MB-231 [4]; 35% in the test with MCF7 [5]. Moreover, the IC50 turned out to be 5000 nM in the test with Jurkat [6], 5600 nM with MDA-MB-231 [9], 3300 nM with MCF7 [7] and 6600 nM with HCT-116 [8]. Besides, in the test on Jurkat [10], the “fold change (FC)” value was 2 - 5.

For the compound `COc1ccc2c(/C=N/NC(=O)C(=O)c3c[nH]c4ccc(Br)cc34)c[nH]c2c1`, the viability at 10 µM with HCT-116 [1] is 71.4%; in the test with Jurkat [2] it was 74.1%; in the test on BT-474 [3], 92%; in the test on MDA-MB-231 [4], 112%; in the test on MCF7 [5], 91.4%.

`COc1ccc(/C=N/NC(=O)C(=O)c2c[nH]c3ccccc23)cc1`: the viability at 10 µM in the test on HCT-116 [1] came out at 101%; with Jurkat [2], 61.9%; in the test with BT-474 [3], 97.5%; in the test with MDA-MB-231 [4], 102%; in the test with MCF7 [5], 106%.

As to `O=C(N/C=C/c1c[nH]c2ccccc12)C(=O)c1c[nH]c2ccccc12`, the IC50 in the test on DU-145 amounted to 7.6 µM.

For `COc1cccc2c1C(=O)c1c(O)c3c(c(O)c1C2=O)C[C@@](O)(C(=O)CO)C[C@@H]3O[C@H]1C[C@H](N)[C@H](O)[C@H](C)O1` [DOXORUBICIN], the viability at 10 µM is 25% in the test on HCT-116 [1]; 21% in the test on Jurkat [2]; 17.6% with BT-474 [3]; 22.5% in the test with MDA-MB-231 [4]; 27% in the test with MCF7 [5]. Further, the IC50 with Jurkat [6] stood at 260 nM; in the test on BT-474 [11], 300 nM; in the test on MDA-MB-231 [9] it was 550 nM.

With `COc1ccc2c(c1)c(/C=N/NC(=O)C(=O)c1c[nH]c3ccc(Br)cc13)cn2Cc1ccc(Cl)cc1`, the viability at 10 µM worked out at 86.1% in the test with HCT-116 [1]; 46.6% in the test with Jurkat [2]; 99.1% in the test on BT-474 [3]; 103% in the test on MDA-MB-231 [4]; 96.1% with MCF7 [5].

On to `O=C(N/C=C/c1c[nH]c2cc(Br)ccc12)C(=O)c1c[nH]c2ccccc12`, for which the half-inhibitory concentration (IC50) with DU-145 was 7.6 µM.

On to `O=C(Nc1ccncc1)C(=O)c1cn(Cc2ccc(Cl)cc2)c2ccccc12` [INDIBULIN], for which the half-inhibitory concentration (IC50) in the test with MCF7 [7] came to 1100 nM.

As to `COc1cccc(/C=N/NC(=O)C(=O)c2c[nH]c3ccccc23)c1`, the viability at 10 µM in the test with HCT-116 [1] was 72.4%; in the test with Jurkat [2] it was 59.7%; in the test on BT-474 [3], 95.1%; in the test with MDA-MB-231 [4], 97.2%; in the test on MCF7 [5] it was 96.8%.

Take `COc1ccc(-c2[nH]c3ccccc3c2/C=N/NC(=O)C(=O)c2c[nH]c3ccccc23)cc1`: the viability at 10 µM in the test with HCT-116 [1] was determined as 71.8%; in the test with Jurkat [2] it was 81.6%; in the test with BT-474 [3], 94.2%; in the test with MDA-MB-231 [4] it was 98.8%; in the test on MCF7 [5] it was 107%.

For the compound `COc1ccc(/C=N/NC(=O)C(=O)c2c[nH]c3ccccc23)cc1OC`, the viability at 10 µM turned out to be 92.8% in the test with HCT-116 [1]; 78.9% with Jurkat [2]; 103% in the test on BT-474 [3]; 94.6% in the test on MDA-MB-231 [4]; 99.8% in the test on MCF7 [5].

Turning to `Brc1ccc2c(-c3c[nH]c(-c4c[nH]c5ccccc45)n3)c[nH]c2c1` [NORTOPSENTIN C], the IC50 in the test on P388 was in the range of 4.5 to 20.7 µM.

For the compound `Cn1c(-c2cn(C)c3ccccc23)cnc1-c1cn(C)c2cc(Br)ccc12` [N-METHYL NORTOPSENTIN B], the half-inhibitory concentration (IC50) with P388 was 4.5 to 20.7 µM.

As for `COc1ccc2[nH]cc(/C=N/NC(=O)C(=O)c3c[nH]c4ccccc34)c2c1`, the viability at 10 µM in the test on HCT-116 [1] was 17.6%; with Jurkat [2], 19.3%; in the test on BT-474 [3], 20.3%; in the test on MDA-MB-231 [4], 21.6%; in the test on MCF7 [5] it was 17.2%. Besides, the IC50 in the test with Jurkat [6] turned out to be 500 nM; in the test on BT-474 [11], 1100 nM; in the test with MDA-MB-231 [9], 1700 nM; with MCF7 [7], 1800 nM; in the test on HCT-116 [8], 400 nM. Moreover, the “fold change (FC)” value in the test with Jurkat [10] is listed as 2 - 5.

In the case of `COc1cc(/C=N/NC(=O)C(=O)c2c[nH]c3ccccc23)cc(OC)c1OC`, the viability at 10 µM with HCT-116 [1] was 99.1%; in the test on Jurkat [2] it was 69.6%; in the test with BT-474 [3], 101%; with MDA-MB-231 [4] it was 103%; in the test with MCF7 [5] it was 110%.

With `O=C(N/C=C/c1c[nH]c2ccc(Br)cc12)C(=O)c1c[nH]c2c(O)cccc12`, the IC50 with DU-145 is 7.6 µM.

With `Brc1ccc2c(-c3c[nH]c(-c4c[nH]c5cc(Br)ccc45)n3)c[nH]c2c1` [NORTOPSENTIN A], in the test with P388, the half-maximal inhibitory concentration (IC50) was in the range of 4.5 to 20.7 µM.

`O=C(N/N=C/c1c[nH]c2ccc(F)cc12)C(=O)c1c[nH]c2ccccc12`: the viability at 10 µM came out at 85.1% with HCT-116 [1]; 56.7% with Jurkat [2]; 112% in the test with BT-474 [3]; 102% in the test with MDA-MB-231 [4]; 105% in the test on MCF7 [5].

With `O=C(N/N=C/c1c[nH]c2cc(F)ccc12)C(=O)c1c[nH]c2ccc(Br)cc12`, the viability at 10 µM with HCT-116 [1] came out at 84.2%; with Jurkat [2], 95.8%; in the test with BT-474 [3] it was 94.8%; in the test with MDA-MB-231 [4], 111%; in the test with MCF7 [5], 97.5%.

For `O=C(N/N=C/c1c[nH]c2cc(F)ccc12)C(=O)c1c[nH]c2ccccc12`, the viability at 10 µM worked out at 104% in the test on HCT-116 [1]; 69.9% in the test with Jurkat [2]; 88.2% in the test with BT-474 [3]; 106% with MDA-MB-231 [4]; 40.2% in the test with MCF7 [5].
